Measured values as given in patent EP0339496A2, “Aminoguanidine derivatives” (ONO PHARMACEUTICAL CO., LTD., priority 1988, dated 1989).

Legend:
Maillard reaction [1] = test: Inhibitory effect on Maillard reaction in vitro (bovine serum albumin + glucose, fluorescence); type: biochemical; settings: bovine serum albumin 100 mg/ml, glucose 200 mM, 0.5 M phosphate buffer pH 7.38, one week at 37°C, fluorescence ex 360 nm / em 450 nm
Protocol: In order to evaluate the inhibitory effect on Maillard reaction in vitro, of the compounds in the present invention, the measurement was carried out under conditions described below. Bovine serum albumin (100 mg/ml), glucose (200 mM) and test compound (6 mM, 30 mM in example 2 and 2(a)) were dissolved in 0.5 M phosphatic buffer solution (pH 7.38), and the mixture was incubated for a week at 37°C. After incubation, the incubated medium was diluted 100 times with the same phosphatic buffer solution, and the fluorescence spectrum was measured at the excitation maximum of 360nm and the emission maximum of 450 nm. Inhibition percentage of the test compounds was calculated by the following equation: [table]

Maillard reaction [2] = settings: Brownlee et al., Science, 232, 1629 (1986); cited from earlier work
[3] = system: advanced glycosylation end products in arterial wall connective tissue protein; settings: administered to diabetic rats; Brownlee et al., Science, 232, 1629 (1986); cited from earlier work
[4] = test compound 30 mM (example 2 and 2(a))

Compound | Inhibitory effect (%) (Maillard reaction [1]; test compound 6 mM) | further results
I.N=C(NN)NCc1ccc(F)cc1 [1 (e), 1-amino-3-(4-fluorobenzyl) guanidine hydroiodide] | 43 | –
COc1ccc(CNC(=N)NN)cc1.I [1 (f), 1-amino-3-(4-methoxybenzyl) guanidine hydroiodide] | 54 | –
CCCCN(CCCC)C(=N)NN [1 (g), 1-amino-3,3-n-butylguanidine hydroiodide] | 34 | –
N=C(NN)NCc1cccc2ccccc12 [1 (h), 1-amino-3-(1-naphtylmethyl) guanidine hydroiodide] | 51 | –
I.N=C(NN)NCc1cccc([N+](=O)[O-])c1 [1 (i), 1-amino-3-(3-nitrobenzyl) guanidine hydroiodide] | 57 | –
CN(C(=N)NN)c1ccccc1.I [1 (o), 1-amino-3-methyl-3-phenyl guanidine hydroiodide] | 54 | –
CN(N)C(=N)NCc1ccccc1.I [1 (r), 1-amino-1-methyl-3-benzylguanidine hydroiodide] | 36 | –
Cl.N=C(NN)N1CCCC1 [1 (u), 1-pyrrolidinecarbohydrazide imide hydrochloride] | 43 | –
Cl.N=C(NN)N1CCOCC1 [1 (v), 4-morpholinecarbohydrazide imide hydrochloride] | 36 | –
N=C(N)N(N)CCCc1ccccc1 [2 (b), 1-amino-1-(3-phenylpropyl) guanidine] | 50 | –
N=C(N)N(N)CC1CCCC1 [2 (c), 1-amino-1-cyclopenthylmethyl guanidine] | 56 | –
I.N=C(NN)NCCc1ccccc1 [Example 1 (a), 1-amino-3-phenethylguanidine hydroiodide] | 72 | –
I.N=C(NN)NCc1ccccc1 [Example 1, 1-amino-3-benzylguanidine hydroiodide] | 63 | –
N=C(N)N(N)Cc1ccccc1 [Example 2 (a), 1-amino-1-benzylguanidine] | – | Inhibitory effect (%) (Maillard reaction [1]; [4]): 50%
N=C(N)N(N)CCc1ccccc1 [Example 2, 1-Amino-1-phenethylguanidine] | – | Inhibitory effect (%) (Maillard reaction [1]; [4]): 71%
N=C(N)NN [aminoguanidine] | – | inhibits Maillard reaction in vitro (Maillard reaction [2]): inhibits; inhibits diabetes-induced accumulation of advanced glycosylation end products in arterial wall connective tissue protein [3]: inhibits
